Structures can show the parent of a compound that is named as a salt. Where two headings read alike, the source gives them in different places.

Data set [1] has as its system DENV-2. Description: Virus yield inhibition assay, DENV-2 in Huh7 cells, titers by plaque assay. The note with it: for Maximum effect on DENV replication (in words) / Emax: Huh7, DENV-2 MOI 0.1, 48 h; for Emax / EC50: Dengue virus; for Emax: DENV2, Huh-7, 48 h.
For data set [2], the system named is DENV-2. As to the kind of experiment: Virus yield inhibition, DENV-2 in primary human monocytes, plaque assay. The format is cell-based. Particulars: Dengue virus, DENV2, Monocyte. As for the experimental part:
Primary human monocytes isolated from peripheral blood from healthy donors were infected with DENV-2 at an MOI of 10 PFU/cell in the presence of the drug.
Peripheral blood samples from three healthy donors were collected in EDTA tubes. The blood was then diluted with 2 volumes of DPBS without calcium and without magnesium (PAN Biotech) and carefully layered onto Ficoll-hypaque (PAN Biotech). The blood was then subjected to centrifugation at 700 g, without brakes. The interphase cells containing the peripheral blood mononuclear cells (PBMCs) were aspirated, transferred to a clean tube and washed three times with DPBS. CD14+ monocytes were isolated using MicroBeads conjugated to monoclonal anti-human CD14 antibodies (MACS Miltenyi Biotec) according to the manufacturer's instructions, with some modifications. Briefly, 10 μl of Microbeads were incubated with 1×10^7 cells for 15 min at 4° C. After washing with DPBS magnetic separation of CD14+ monocytes was performed using an autoMACS Separator. The purity of the isolated monocytes (89.8% for donor 1, 94.8% for donor 2 and 97.7% for donor 3) was corroborated by FACS staining using anti-CD14 antibodies.
Identification of host factors using RNAi may depend to a large extent on the cellular system chosen to perform the screen, what argues for the need of testing the selected hit candidates in cellular systems more representative of the infection in nature. […] The impact of the drug on virus production was assessed by plaque assay 48 h after infection.

For data set [3], the system named is primary human monocytes. As to the kind of experiment: Viability of primary human monocytes (ATP content). It counts as cell-based. Particulars: 48 h.
Data set [4] concerns DENV-1. As to the kind of experiment: Virus yield inhibition assay, DENV-1 in Huh7 cells. It counts as cell-based, Dengue virus. Particulars: 200 μM, Huh7, 48 h. The source says: (§1) Given the only 62-67% of amino acid conservation among DENV serotypes (Kyle & Harris 2008), the different serotypes might not be equally dependent on the same host factors for their replication.
Data set [5] deals with DENV-3. Description: Virus yield inhibition assay, DENV-3 in Huh7 cells. It counts as cell-based, Dengue virus. Particulars: 200 μM, Huh7, 48 h.
Source text: as §1

For data set [6], the system named is DENV-4. Description: Virus yield inhibition assay, DENV-4 in Huh7 cells. The note with it: 200 μM, Huh7, 48 h. The format is cell-based, Dengue virus.
Source text: as §1

Data set [7] has as its system DENVsg reporter replicon. As to the kind of experiment: microbe, parasite or virus in culture. It counts as cell-based, Dengue virus.
Data set [8] relates to DENV(GND)sg-R2A. The format is cell-based, Dengue virus. Particulars: 200 μM, initial 10 h of transfection.
The nature of data set [9]: Cell viability of Huh7 cells (ATP content / F-Luc activity). The note with it: human.
Data set [10] deals with DENVTCP. As to the kind of experiment: Time-of-addition with single-round DENVTCP particles in Huh7 cells, Rluc. The note with it: 200 μM, readout 48 h.
Data set [11] concerns the target T1, PPARα (Homo sapiens, UniProt Q07869).
T1 sequence (Q07869 1-468): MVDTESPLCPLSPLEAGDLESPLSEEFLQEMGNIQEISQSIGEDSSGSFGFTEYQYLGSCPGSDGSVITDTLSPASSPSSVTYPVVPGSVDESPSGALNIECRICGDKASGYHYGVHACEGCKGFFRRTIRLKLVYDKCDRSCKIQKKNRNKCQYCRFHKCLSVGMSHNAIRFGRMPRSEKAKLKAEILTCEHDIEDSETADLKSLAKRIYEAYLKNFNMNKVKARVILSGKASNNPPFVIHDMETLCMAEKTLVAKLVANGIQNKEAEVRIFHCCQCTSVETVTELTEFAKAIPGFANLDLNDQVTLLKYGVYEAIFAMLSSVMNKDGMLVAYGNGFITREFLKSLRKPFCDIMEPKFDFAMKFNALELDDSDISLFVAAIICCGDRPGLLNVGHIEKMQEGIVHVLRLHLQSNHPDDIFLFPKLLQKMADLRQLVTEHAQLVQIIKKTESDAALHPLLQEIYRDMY
Particulars: antagonist; cited from earlier work.

Data set [12] deals with T2, PPARγ (Homo sapiens, UniProt P37231).
T2 sequence (P37231 1-505): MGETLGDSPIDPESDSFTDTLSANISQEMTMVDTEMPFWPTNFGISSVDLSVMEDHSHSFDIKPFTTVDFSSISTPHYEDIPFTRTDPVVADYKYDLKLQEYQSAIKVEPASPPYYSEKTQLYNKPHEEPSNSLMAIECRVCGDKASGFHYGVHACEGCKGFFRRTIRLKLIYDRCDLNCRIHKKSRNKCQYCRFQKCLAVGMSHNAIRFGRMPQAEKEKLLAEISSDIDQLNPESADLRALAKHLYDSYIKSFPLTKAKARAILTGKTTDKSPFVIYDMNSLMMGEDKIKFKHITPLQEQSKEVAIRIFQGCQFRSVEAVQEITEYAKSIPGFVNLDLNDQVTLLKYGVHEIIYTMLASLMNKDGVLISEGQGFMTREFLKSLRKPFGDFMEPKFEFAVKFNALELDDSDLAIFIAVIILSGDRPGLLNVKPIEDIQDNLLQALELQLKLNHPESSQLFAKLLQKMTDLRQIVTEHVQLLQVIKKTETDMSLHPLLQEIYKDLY
Particulars: antagonist; cited from earlier work.

The mark [13] stands for this setting: concentration per compound as in Table 1.
[14] abbreviates: read-out: Maximum effect on DENV replication (inhibition), inhibition of virus production, concentration per compound as in Table 1 column 'Concentration used (FIG. 3B)'.

For the compound `Cl.N=C(N)CCl` [2CA, 2-chloroethanimidamide hydrochloride], in data set [1] (50 μM, Huh7, 48 h), the “inhibition on virus production” value is on record as 77%.
With `O=C(NCc1ccc2c(c1)OCO2)c1c(Cl)cccc1Cl` [Alda-1, N-(1,3-Benzodioxol-5-ylmethyl)-2,6-dichlorobenzamide], the “Maximum effect on DENV replication (in words)” value (“Maximum effect” below) in data set [1] (setting [13]) is “inactive”.
As to `CN1C2CCC1CC(OC(=O)C(CO)c1ccccc1)C2` (stereo not drawn) [Atropine, α-(Hydroxymethyl)benzeneacetic acid 8-methyl-8-azabicyclo[3.2.1]oct-3-yl ester], the “Maximum effect” value in [1] (setting [13]) was “inactive”.
As to `Oc1cc2c(cc1O)CN(C(=S)NCCc1ccc(Cl)cc1)CCC2` [Capsazepine, N-[2-(4-Chlorophenyl)ethyl]-1,3,4,5-tetrahydro-7,8-dihydroxy-2H-2-benzazepine-2-carbothioamide], in data set [1] (setting [13]), the “Maximum effect” value is “inactive”.
What is called EC50 is the midpoint of the concentration-response curve. The term CC50 denotes the concentration that lowers cell viability or growth by half. A higher CC50 goes with better tolerance by the cells. On to `N=C(CCl)NCCC[C@H](NC(=O)c1ccccc1)C(N)=O` [Cl-amidine, N-α-benzoyl-N5-(2-chloro-1-iminoethyl)-L-ornithine amide], for which the EC50 in data set [2] (48 h, monocytes of Donor 1, MOI 10, 48 h, read-out: EC50) was 16.9 µM; in data set [2] (48 h, monocytes of Donor 2, MOI 10, 48 h, read-out: EC50), 24.6 µM; in data set [2] (48 h, monocytes of Donor 3, MOI 10, 48 h, read-out: EC50), 22.9 µM; in [2] (three donors, read-out: EC50 values among different donors), 17 to 25 µM; in data set [7] (Dengue virus, Huh-7, 48 h, read-out: EC50 (R-Luc activity)), 16.5 ± 2.49 µM; in data set [1] (DENV2, Huh-7, Huh7 transduced with shNT#2) it was 17.1 µM. Also, the EC50 in data set [1] (DENV2, Huh-7, Huh7 transduced with shPADI4#4 (PADI4 silenced)) was 1.18 µM; in data set [1] (DENV2, Huh-7, read-out: EC50 ± SD), 215 ± 19 µM; in [1] (DENV2, Huh-7, read-out: EC50 ± SD, Huh7-Empty control cell line), 19.3 ± 2.36 µM; in data set [1] (DENV2, Huh-7, read-out: EC50 ± SD, Parental Huh7, 2 h pretreatment, 48 h), 16.1 µM. Besides, the “cytotoxicity for primary human monocytes” value in [3] is on record as “not cytotoxic”. Moreover, the “reduction on virus production” value was 10 fold in data set [4]; 10 fold in [5]; 10 fold in data set [6]; 10 fold in [1] (200 μM, Huh7, 48 h). For the same compound, the “luciferase activity vs DMSO-treated cells” value in data set [7] (200 μM, initial 10 h of transfection) is “no difference in luciferase activity”; in data set [8], “no difference in luciferase activity”. The compound further registered a half-maximal cytotoxic concentration (CC50) at 48 h in [9] above 1000 µM. In addition, the “time of addition after infection up to which inhibitory effect remained significant” value in [10] is reported as “up to 8 h”. Moreover, the Emax in [1] (setting [14]) turned out to be 92.7%. In addition, the “inhibition of virus titers” value in data set [1] (highest concentration tested, Huh7) is “up to 100 fold”.
With `O=c1c(-c2ccc(O)cc2)coc2cc(O[C@@H]3O[C@H](CO)[C@@H](O)[C@H](O)[C@H]3O)ccc12` [Daidzin, Daidzein-7-O-β-D-glucopyranoside], the “Maximum effect” value in data set [1] (setting [13]) was “inactive”.
As usually defined, the IC50 is the concentration at which inhibition is half-maximal. In the case of `COC(=O)c1sccc1S(=O)(=O)Nc1ccc(Nc2ccccc2)cc1OC` [GSK0660, 3-(((2-Methoxy-4-(phenylamino)phenyl)amino)sulfonyl)-2-thio-phenecarboxylic acid methyl ester], the half-maximal inhibitory concentration (IC50) in [11] and in data set [12] was above 10 µM in each case. For the same compound, in [1] (setting [14]), the Emax was around 62%.
In the case of `Cc1cc(SCc2sc(-c3ccc(C(F)(F)F)c(F)c3)nc2C)ccc1OCC(=O)O` [GW0742], the Emax in data set [1] (read-out: Maximum effect on DENV replication (enhancement), enhancement of virus production, concentration per compound as in Table 1) is around 48%.
Take `C=C(C)C1CNC(C(=O)O)C1CC(=O)O` (centres unmarked) [Kainic acid monohydrate, 2-Carboxy-3-carboxymethyl-4-isopropenylpyrrolidine]: in data set [1] (setting [13]), the “Maximum effect” value was “inactive”.
For `CC1CCC(C(C)C)C(O)C1` (centres unmarked) [Menthol, 2-Isopropyl-5-methylcyclohexanol], the “Maximum effect” value in [1] (setting [13]) was “inactive”.
For the compound `COc1ccccc1CNCCCCCCNCCCCCCCCNCCCCCCNCc1ccccc1OC` [Methoctramine hydrate, N,N,′-bis[6-[[(2-Methoxyphenyl)methyl]amino]hexyl]-1,8-octane diaminetetrahydrochloride hydrate], the “Maximum effect” value in data set [1] (setting [13]) is “inactive”.
Same read-out and setting: for `C[N+](C)(C)CC#CCN1CCCC1=O.[I-]` [Oxotremorine M, N,N,N,-trimethyl-4-(2-oxo-1-pyrrolidinyl)-2-butyn-1-ammonium iodide] the value was “inactive”; for `COc1ccc(NC(=O)C2C[C@H](C)CC[C@H]2C(C)C)cc1` (stereo partly drawn) [WS-12, (2S,5R)-2-Isopropyl-N-(4-methoxyphenyl)-5-methylcyclohexane carboximide], “inactive”.

Source of the values: patent US20170128483A1, “HOST DEPENDENCY FACTORS AS TARGETS FOR ANTIVIRAL THERAPY” (Ruprecht-Karls-Universitat Heidelberg, priority 2014, published 2017).
